Results on 14 molecules are retold here after US9345742B2, “Aminostatin derivatives for the treatment of arthrosis” (MERCK PATENT GMBH, priority 2011, dated 2016).

One may read the IC50 as the concentration at which inhibition is half-maximal.

Assay [1] concerns the target cathepsin D isolated from the human liver (Homo sapiens (Human), UniProt P07339). The assay can be described thus: In-vitro fluorescence assay for identification of cathepsin D inhibitors. In kind it is biochemical. As to conditions: cathepsin D 1.4 nM, pH 5.5; read-out: CatD assay IC50-. On the procedure:
In order to identify modulators of cathepsin D activity, a continuous enzymatic test was carried out with a synthetic peptide which carries a fluorescent group (MCA=(7-methoxycoumarin-4-yl)acetyl) which is quenched by energy transfer from a Dpn (2,4 dinitrophenyl) group on the same molecule, in Greiner 384-well nb microtitre plates. Cleavage of the peptidic substrate by cathepsin D causes an increase in the fluorescence intensity. In order to determine the efficacy of substances, the time-dependent increase in the fluorescence intensity in the presence of the substance was compared with the time-dependent increase in fluorescence in the absence of substances. The reference substance used was pepstatin A (Sigma-Aldrich). The substrate used was […](Dnp)d-R—NH2 (Enzo Life Sciences, Lörrach). The enzyme employed was cathepsin D isolated from the human liver (Sigma-Aldrich) in a final concentration of 1.4 nM. The test was carried out in 100 mM sodium acetate buffer, 1.25% (v/v) of DMSO, 0.25% (w/v) of Chaps, pH 5.5. 2 μl of each substance solution with serially diluted substance concentration were added to in each case 4 μl of cathepsin D solution and incubated at room temperature for 10 min. The reaction was started by addition of 2 μl of substrate solution (final concentration 5 μM). After carrying out a starting-point fluorescence measurement (excitation wavelength 340 nm/emission wavelength 450 nm) using an Envision multilabel reader (Perkin Elmer), the reaction was incubated at room temperature for 60 min. The amount of peptide fragment cleaved off during the reaction time was subsequently measured by determination of the increase in the fluorescence intensity at 450 nm (excitation wavelength 340 nm).

For a further assay, the target named is recombinant human renin (Homo sapiens (Human), UniProt P00797). The assay can be described thus: In-vitro fluorescence assay for identification of renin-inhibitory activity. It is filed as biochemical. As to conditions: recombinant human renin 10 nM, pH 7.2; read-out: Renin selectivity IC50. On the procedure:
In order to identify modulators of renin activity, a continuous enzymatic test was carried out with a synthetic peptide which carries a fluorescent group Edans (=(5-(aminoethyl)aminonaphthalenesulfonate) which is quenched by energy transfer from a Dabcyl (4′-dimethylaminoazobenzene-4-carboxylate) group on the same molecule, in Greiner 384-well microtitre plates. Cleavage of the peptidic substrate by renin causes an increase in the fluorescence intensity. In order to determine the efficacy of substances, the time-dependent increase in the fluorescence intensity in the presence of the substance was compared with the time-dependent increase in fluorescence in the absence of substances. The reference substance used was renin inhibitor 2 (Z-Arg-Arg-Pro-Phe-His-Sta-Ile-His N-Boc-Lys methyl ester Z) (Sigma-Aldrich). The substrate used was renin FRET substrate I (DABCYL-g-Abu-[…]EDANS) (Anaspec, Fremont Calif.). The enzyme employed was recombinant human renin (Proteos, Kalamazoo, Mich.) in a final concentration of 10 nM. The test was carried out in 50 mM Mops buffer, 1.5% (v/v) of DMSO, 0.1% (w/v) of Igepal®, pH 7.2, 0.5% (w/v) of BSA. 2 μl of each substance solution with serially diluted substance concentration were added to in each case 4 μl of renin solution and incubated at room temperature for 15 min. The reaction was started by addition of 4 μl of substrate solution (final concentration 5 μM). After carrying out a starting-point fluorescence measurement (excitation wavelength 340 nm/emission wavelength 495 nm) using an Envision multilabel reader (Perkin Elmer), the reaction was incubated at 37° C. for 60 min. The amount of peptide fragment cleaved off during the reaction time was subsequently measured by determination of the increase in the fluorescence intensity at 495 nm (excitation wavelength 340 nm).

Numbered stars: 1 amine (or outer) side, 2 acyl side, 3 side chain; on linkers, the order of the positions; unused ones are H or OH. Square brackets hold non-standard residues; d marks the D form. Peptide text beside a SMILES is read from it. * marks the point of attachment. X1 = N[C@@H](CC(=O)[*:2])[C@H](Cc1ccccc1)N[*:1]; 1Nal = N[C@@H](Cc1cccc2ccccc12)C(=O)O; Isovaleryl = CC(C)CC(=O)*; Abu = CC[C@H](N)C(=O)O; Boc = CC(C)(C)OC(=O)*

recombinant human renin, sequence (P00797 67-406): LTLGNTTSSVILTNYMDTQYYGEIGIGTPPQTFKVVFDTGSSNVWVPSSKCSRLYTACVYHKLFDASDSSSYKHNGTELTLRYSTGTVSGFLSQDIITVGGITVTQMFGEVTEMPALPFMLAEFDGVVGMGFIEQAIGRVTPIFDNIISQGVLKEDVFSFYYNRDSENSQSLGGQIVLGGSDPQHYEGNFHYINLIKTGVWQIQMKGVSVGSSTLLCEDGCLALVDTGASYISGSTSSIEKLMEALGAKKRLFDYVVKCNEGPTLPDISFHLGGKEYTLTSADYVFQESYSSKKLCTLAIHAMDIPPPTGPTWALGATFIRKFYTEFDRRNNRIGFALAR
cathepsin D isolated from the human liver, sequence (P07339 65-161): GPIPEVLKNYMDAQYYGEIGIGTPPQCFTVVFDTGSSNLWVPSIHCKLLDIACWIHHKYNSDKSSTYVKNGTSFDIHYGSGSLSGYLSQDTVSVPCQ
cathepsin D isolated from the human liver, sequence (P07339 169-412): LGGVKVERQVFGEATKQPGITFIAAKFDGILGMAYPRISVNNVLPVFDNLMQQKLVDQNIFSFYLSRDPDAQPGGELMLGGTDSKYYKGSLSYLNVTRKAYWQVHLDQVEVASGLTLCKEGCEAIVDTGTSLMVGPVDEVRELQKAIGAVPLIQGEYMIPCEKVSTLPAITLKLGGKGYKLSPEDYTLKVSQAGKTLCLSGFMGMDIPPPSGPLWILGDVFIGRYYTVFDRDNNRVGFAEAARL

`CC[C@H](C)[C@H](NC(=O)Cc1cccc(OC(F)(F)F)c1)C(=O)N[C@@H](Cc1ccccc1)[C@@H](N)CC(=O)N[C@H](C(=O)N[C@H](CO)C(C)C)[C@@H](C)CC` [Compound 41, N-{(2S,3S)-1-[1-((S)-Hydroxymethyl)-2-methylpropylcarbamoyl]-2-methylbutyl)-3-(S)-amino-4-{(S)-(2S,3S)-3-methyl-2-[2-(3-trifluoromethoxyphenyl)acetylamino]-pentanoylamino}-5-phenylpentanamide]: the figures for the IC50 (in assay [1]; on recombinant human renin) were 48 nM and > 30 µM, respectively.
The like results for `CC[C@H](NC(=O)[C@H](CC(C)C)NC(=O)CC(C)C)C(=O)N[C@@H](Cc1ccccc1)[C@@H](N)CC(=O)NCCc1ccc(Cl)c(Cl)c1` [Compound 6, N-[2-(3,4-Dichlorophenyl)ethyl]-(3S,4S)-3-amino-4-{(S)-2-[(S)-4-methyl-2-(3-methyl-butyrylamino)pentanoylamino]butyryl-amino}-5-phenylpentanamide] were, in that order, 1200 nM and > 30 µM.
In the case of `CC[C@H](C)[C@H](NC(=O)C[C@H](N)[C@H](Cc1ccccc1)NC(=O)[C@H](Cc1ccccc1)NC(=O)[C@H](CC(C)C)NC(=O)CC(C)C)C(=O)N[C@H](C(=O)OC)C(C)C` [Compound 11, Methyl (S)-2-[(2S,3S)-2-((3S,4S)-3-amino-4-{(S)-2-[(S)-4-methyl-2-(3-methylbutyrylamino)pentanoylamino]-3-phenyl-propionylamino}-5-phenylpentanoylamino)-3-methylpentanoylamino]-3-methyl-butyrate] (Isovaleryl-LF[X1]IV-OMe), the IC50 in assay [1] is 610 nM; on recombinant human renin, > 30 µM.
For the molecule `CC[C@H](NC(=O)[C@H](CC(C)C)NC(=O)CC(C)C)C(=O)N[C@@H](Cc1ccccc1)[C@@H](N)CC(=O)N[C@H](C(=O)N[C@H](C(=O)OC)C(C)C)[C@@H](C)CC` [Compound 4, Methyl (S)-2-[(2S,3S)-2-((3S,4S)-3-amino-4-{(S)-2-[(S)-4-methyl-2-(3-methylbutyrylamino)pentanoylamino]-1-oxobutylamino}-5-phenylpentanoylamino)-3-methyl-pentanoylamino]-3-methylbutyrate] (Isovaleryl-L[Abu][X1]IV-OMe), the IC50 in assay [1] is 97 nM.
As for `CC[C@H](C)[C@H](NC(=O)C[C@H](N)[C@H](Cc1ccccc1)NC(=O)[C@@H](NC(=O)[C@H](CC(C)C)NC(=O)CC(C)C)C(C)C)C(=O)N[C@H](C(=O)OC)C(C)C` [Compound 10, Methyl (S)-2-[(2S,3S)-2-((3S,4S)-3-amino-4-{(S)-3-methyl-2-[(S)-4-methyl-2-(3-methyl-butyrylamino)pentanoylamino]-1-oxobutylamino}-5-phenylpentanoylamino)-3-methylpentanoylamino]-3-methyl-butyrate] (Isovaleryl-LV[X1]IV-OMe), the IC50 in assay [1] is 5.1 nM.
With `COC(=O)[C@@H](NC(=O)[C@H](Cc1cccc2ccccc12)NC(=O)C[C@H](N)[C@H](Cc1ccccc1)NC(=O)[C@@H](NC(=O)[C@H](CC(C)C)NC(=O)CC(C)C)C(C)C)C(C)C` [Compound 28, Methyl (S)-2-[(S)-2-((3S,4S)-3-amino-4-{(S)-3-methyl-2-[(S)-4-methyl-2-(3-methyl-butyrylamino)pentanoylamino]butyryl-amino}-5-phenylpentanoylamino)-3-naphthalen-1-ylpropionylamino]-3-methylbutyrate] (Isovaleryl-LV[X1][1Nal]V-OMe), the IC50 in assay [1] was 3.7 nM; at recombinant human renin, > 30 µM.
Take `CC[C@H](C)[C@H](NC(=O)C[C@H](N)[C@H](Cc1ccccc1)NC(=O)[C@@H](NC(=O)[C@H](Cc1ccccc1)NC(=O)CC(C)C)C(C)C)C(=O)N[C@H](CO)C(C)C` [Compound 42, N-[(1S,2S)-1-((S)-1-Hydroxymethyl-2-methylpropylcarbamoyl)-2-methylbutyl]-(S)-3-(S)-amino-4-{(S)-3-methyl-2-[(S)-2-(3-methylbutyrylamino)-3-phenylpropionylamino]butyrylamino}-5-phenylpentanamide]: the IC50 in assay [1] turned out to be 3.6 nM.
The same measure, in the same setting: the value for `CC[C@H](C)[C@H](NC(=O)C[C@H](N)[C@H](Cc1ccccc1)NC(=O)[C@@H](NC(=O)[C@H](CC(C)C)NC(=O)CC(C)C)C(C)C)C(=O)N[C@H](C(=O)OC)[C@@H](C)CC` [Compound 13, Methyl (2S,3S)-2-[(S)-2-((S)-3-(S)-amino-4-{(S)-3-methyl-2-[(S)-4-methyl-2-(3-methyl-butyrylamino)pentanoylamino]butyryl-amino}-5-phenylpentanoylamino)-3-methyl-1-(S)-oxopentylamino]-3-methylpentanoate] (Isovaleryl-LV[X1]II-OMe) was 47 nM.
Still for that read-out and setting: the same measure for `CC[C@H](C)[C@H](NC(=O)C[C@H](N)[C@H](Cc1ccccc1)NC(=O)[C@@H](NC(=O)[C@@H](N)Cc1ccccc1)C(C)C)C(=O)N[C@H](C(=O)OC)C(C)C` [Compound 21, Methyl (S)-2-((2S,3S)-2-{(3S,4S)-3-amino-4-[(S)-2-((S)-2-amino-3-phenylpropionylamino)-3-methylbutyrylamino]-5-phenyl-pentanoylamino)-3-methylpentanoyl-amino)-3-methylbutyrate] (H-FV[X1]IV-OMe): 81 nM.
Consider `CC[C@H](C)[C@H](NC(=O)C[C@H](N)[C@H](Cc1ccccc1)NC(=O)[C@@H](NC(=O)[C@H](CC(C)C)NC(=O)CC(C)C)C(C)C)C(=O)N[C@H](CO)C(C)C` [Compound 34, N-[(1S,2S)-1-((S)-1-Hydroxymethyl-2-methylpropylcarbamoyl)-2-methylbutyl]-(S)-3-(S)-amino-4-{(S)-3-methyl-2-[(S)-4-methyl-2-(3-methylbutyrylamino)pentanoyl-amino]butyrylamino}-5-phenylpentanamide], for which the half-maximal inhibitory concentration (IC50) in assay [1] was found to be 6.2 nM.
Still for that read-out and setting: the value for `CC[C@H](C)[C@H](NC(=O)C[C@H](N)[C@H](Cc1ccccc1)NC(=O)[C@@H](NC(=O)[C@H](Cc1ccccc1)NC(=O)OC(C)(C)C)C(C)C)C(=O)N[C@H](C(=O)OC)C(C)C` [Compound 20, Methyl (S)-2-((2S,3S)-2-{(3S,4S)-3-amino-4-[(S)-2-((S)-2-tert-butoxycarbonylamino-3-phenylpropionylamino)-3-methylbutyrylamino]-5-phenylpentanoylamino}-3-methyl-pentanoylamino)-3-methylbutyrate] (Boc-FV[X1]IV-OMe) was 1 nM; that for `CC[C@H](C)[C@H](NC(=O)C[C@H](N)[C@H](Cc1ccccc1)NC(=O)[C@H](CC(C)C)NC(=O)CC(C)C)C(=O)N[C@H](C(=O)OC)C(C)C` [Compound 3, Methyl (S)-2-((2S,3S)-2-{(3S,4S)-3-amino-4-[(S)-4-methyl-2-(3-methylbutyrylamino)pentanoylamino]-5-phenylpentanoylamino}-3-methylpentanoylamino)-3-methyl-butyrate] was 5500 nM; that for `CC[C@H](C)[C@H](NC(=O)C[C@H](N)[C@H](Cc1ccccc1)NC(=O)[C@@H](NC(=O)[C@H](CC(C)C)NC(=O)OC(C)(C)C)C(C)C)C(=O)N[C@H](C(=O)OC)C(C)C` [Compound 16, Methyl (S)-2-((2S,3S)-2-{(3S,4S)-3-amino-4-[(S)-2-((S)-2-tert-butoxycarbonylamino-4-methylpentanoylamino)-3-methylbutyrylamino]-5-phenylpentanoylamino}-3-methyl-pentanoylamino)-3-methylbutyrate] (Boc-LV[X1]IV-OMe) was 36 nM.
In the case of `CC[C@H](C)[C@H](NC(=O)C[C@H](N)[C@H](Cc1ccccc1)NC(=O)[C@@H](NC(=O)COc1ccc(Cl)cc1Cl)C(C)C)C(=O)N[C@H](C(=O)OC)C(C)C` [Compound 22, Methyl (S)-2-[(2S,3S)-2-((3S,4S)-3-amino-4-{(S)-2-[2-(2,4-dichlorophenoxy)acetylamino]-3-methylbutyrylamino)-5-phenyl-pentanoylamino)-3-methylpentanoyl-amino]-3-methylbutyrate], the IC50 in assay [1] was 27 nM.
